Measured values taken from ChEMBL document CHEMBL3046267, “Induction of Phytoalexin Formation in Suspension-cultured Rice Cells byN-Acetyl-chitooligosaccharides” (1993).
Active and inactive are the calls of the source. The rule behind the calls is not given here.

Key:
Assay type in all cases: functional
Pyricularia oryzae = assay: Antifungal activity against Magnaporthe oryzae assessed as inhibition of germ tube growth at 1 to 5 ug/ml relative to control
Oryza sativa [1] = assay: Induction of phytoalexin formation in suspension-cultured Oryza sativa (rice) cells assessed as accumulation of momilactone A in culture medium at 0.7 x 10^-9 to 0.7 x 10^-6 M after 24 hr by GC/GC-MS analysis
Oryza sativa [2] = assay: Induction of phytoalexin formation in suspension-cultured Oryza sativa (rice) cells assessed as accumulation of momilactone A in culture medium at 0.7 x 10^-9 to 0.7 x 10^-6 M after 48 hr by GC/GC-MS analysis
Oryza sativa [3] = assay: Induction of phytoalexin formation in suspension-cultured Oryza sativa (rice) cells assessed as accumulation of intracellular momilactone A at 0.7 x 10^-9 to 0.7 x 10^-6 M after 48 hr by GC/GC-MS analysis
Oryza sativa [4] = assay: Induction of phytoalexin formation in suspension-cultured Oryza sativa (rice) cells assessed as accumulation of momilactone A in culture medium at 0.7 x 10^-9 to 0.7 x 10^-6 M after 72 hr by GC/GC-MS analysis
Oryza sativa [5] = assay: Induction of phytoalexin formation in suspension-cultured Oryza sativa (rice) cells assessed as accumulation of intracellular momilactone B at 10 ug/ml after 48 hr by GC/GC-MS analysis
Oryza sativa [6] = assay: Induction of phytoalexin formation in suspension-cultured Oryza sativa (rice) cells assessed as accumulation of intracellular momilactone A at 0.7 x 10^-9 to 0.7 x 10^-6 M after 24 hr by GC/GC-MS analysis
Oryza sativa [7] = assay: Induction of phytoalexin formation in suspension-cultured Oryza sativa (rice) cells assessed as accumulation of intracellular momilactone A at 0.7 x 10^-9 to 0.7 x 10^-6 M after 72 hr by GC/GC-MS analysis

SMILES | growth inhibition (GI) (Pyricularia oryzae) | Activity (Oryza sativa [1]) | Activity (Oryza sativa [2]) | Activity (Oryza sativa [3]) | Activity (Oryza sativa [4]) | Activity (Oryza sativa [5]) | Activity (Oryza sativa [6]) | Activity (Oryza sativa [7])
C=C[C@]1(C)CC[C@@H]2C(=C[C@H]3OC(=O)[C@@]4(C)C(=O)CC[C@@]2(C)[C@@H]34)C1 [MOMILACTONE A] | 50% | – | – | – | – | – | – | –
C=C[C@]1(C)CC[C@@H]2C(=C[C@H]3OC(=O)[C@]4(C)[C@H]3[C@]23CC[C@@]4(O)OC3)C1 [MOMILACTONE B] | 50% | – | – | – | – | – | – | –
CC(=O)N[C@H]1[C@H](O[C@@H]([C@H](O)[C@H](C=O)NC(C)=O)[C@H](O)CO)O[C@H](CO)[C@@H](O[C@@H]2O[C@H](CO)[C@@H](O[C@@H]3O[C@H](CO)[C@@H](O[C@@H]4O[C@H](CO)[C@@H](O[C@@H]5O[C@H](CO)[C@@H](O[C@@H]6O[C@H](CO)[C@@H](O)[C@H](O)[C@H]6NC(C)=O)[C@H](O)[C@H]5NC(C)=O)[C@H](O)[C@H]4NC(C)=O)[C@H](O)[C@H]3NC(C)=O)[C@H](O)[C@H]2NC(C)=O)[C@@H]1O [N-ACETYLCHITOHEPTAOSE] | – | 24 µg/g | 161 µg/g | 41 µg/g | 149 µg/g | Active | 16 µg/g | 56 µg/g
